Reference: the CheMixHub viscosity set

Experiment: xn = mol fraction of the nth substance listed

CCCCC/C=C\C/C=C\CCCCCCCC(=O)OCC(COC(=O)CCCCCCC/C=C\C/C=C\CCCCC)OC(=O)CCCCCCC/C=C\C/C=C\CCCCC + Cc1ccc(C)cc1
viscosity [mPa·s], 101.3 kPa
Conditions | x1 = 0.000712 | x1 = 0.001435 | x1 = 0.00217 | x1 = 0.002914 | x1 = 0.003771 | x1 = 0.004524 | x1 = 0.005322 | x1 = 0.006113
298.15 K | 0.6159 | 0.6268 | 0.638 | 0.6494 | 0.6627 | 0.6742 | 0.6861 | 0.6966
303.15 K | 0.5801 | 0.5903 | 0.6008 | 0.6115 | 0.6238 | 0.6346 | 0.6455 | 0.6549
308.15 K | 0.5474 | 0.557 | 0.5668 | 0.5769 | 0.5885 | 0.5985 | 0.6085 | 0.617
313.15 K | 0.5174 | 0.5265 | 0.5358 | 0.5453 | 0.5561 | 0.5654 | 0.5747 | 0.5824
318.15 K | 0.49 | 0.4986 | 0.5074 | 0.5163 | 0.5265 | 0.5352 | 0.5437 | 0.5507

C=C(C)C(=O)OC + CC(C)OC(C)C
viscosity [mPa·s], 101.3 kPa
Conditions | 298.15 K | 308.15 K
x1 = 0.0416 | 0.385 | 0.291
x1 = 0.1479 | 0.401 | 0.309
x1 = 0.2488 | 0.417 | 0.326
x1 = 0.3488 | 0.434 | 0.344
x1 = 0.4527 | 0.453 | 0.364
x1 = 0.4958 | 0.461 | 0.372
x1 = 0.5472 | 0.472 | 0.383
x1 = 0.6489 | 0.493 | 0.404
x1 = 0.7504 | 0.517 | 0.427
x1 = 0.8502 | 0.542 | 0.451
x1 = 0.944 | 0.569 | 0.474

C[n+]1ccn(CC(=O)O)c1.[Cl-] + O
298.15 K, 101 kPa
Conditions | viscosity [mPa·s]
x1 = 0.0009 | 0.911
x1 = 0.001 | 0.915
x1 = 0.002 | 0.917

ClCCCCCCCl + C1CCCCC1
viscosity [mPa·s], 101 kPa
Conditions | x1 = 0.07055 | x1 = 0.1468 | x1 = 0.2554 | x1 = 0.3491 | x1 = 0.4438 | x1 = 0.5446 | x1 = 0.6382 | x1 = 0.7449 | x1 = 0.8743
308.15 K | 0.796 | 0.835 | 0.893 | 0.948 | 1.022 | 1.113 | 1.206 | 1.322 | 1.467
313.15 K | 0.721 | 0.759 | 0.818 | 0.873 | 0.947 | 1.036 | 1.126 | 1.246 | 1.387
318.15 K | 0.681 | 0.711 | 0.76 | 0.804 | 0.865 | 0.942 | 1.027 | 1.133 | 1.259

CS(=O)(=O)[O-].C[NH+]1CCCC1=O + O
viscosity [mPa·s], 100 kPa
Conditions | x1 = 0.00179 | x1 = 0.003586 | x1 = 0.005368 | x1 = 0.008047 | x1 = 0.01067 | x1 = 0.01419 | x1 = 0.02096 | x1 = 0.0263 | x1 = 0.03141
293.15 K | 1.057 | 1.106 | 1.151 | 1.222 | 1.295 | 1.396 | 1.594 | 1.754 | 1.917
298.15 K | 0.9409 | 0.9808 | 1.02 | 1.08 | 1.146 | 1.233 | 1.409 | 1.551 | 1.681
303.15 K | 0.8421 | 0.8782 | 0.9124 | 0.9664 | 1.022 | 1.099 | 1.254 | 1.374 | 1.483
308.15 K | 0.7603 | 0.7902 | 0.8191 | 0.8672 | 0.9163 | 0.9865 | 1.126 | 1.232 | 1.325

C=C(C)C(=O)OC + ClC(Cl)Cl
303.15 K, 101 kPa
Conditions | viscosity [mPa·s]
x1 = 0.0522 | 0.5364
x1 = 0.1301 | 0.5505
x1 = 0.3102 | 0.5767
x1 = 0.4132 | 0.5808
x1 = 0.5161 | 0.5747
x1 = 0.7435 | 0.5589
x1 = 0.8591 | 0.542

CCCC[n+]1ccn(C)c1.O=C([O-])C(F)(F)F + ClC(Cl)Cl
Conditions | viscosity [mPa·s]
298.15 K, 101 kPa, x2 = 0.6467 | 9.74

C=C(C)C(=O)OC + CC#N
viscosity [mPa·s], 101 kPa
Conditions | 298.15 K | 303.15 K | 308.15 K | 313.15 K | 318.15 K
x2 = 0.0688 | 0.5536 | 0.5171 | 0.4878 | 0.4643 | 0.4465
x2 = 0.1376 | 0.5439 | 0.5091 | 0.4811 | 0.4585 | 0.4413
x2 = 0.1957 | 0.5346 | 0.5013 | 0.4745 | 0.4526 | 0.4359
x2 = 0.2716 | 0.5214 | 0.4899 | 0.4643 | 0.4435 | 0.4275
x2 = 0.3344 | 0.5094 | 0.4795 | 0.455 | 0.435 | 0.4194
x2 = 0.4135 | 0.4932 | 0.4651 | 0.442 | 0.423 | 0.4079
x2 = 0.4916 | 0.4761 | 0.4498 | 0.4281 | 0.41 | 0.3954
x2 = 0.5649 | 0.4592 | 0.4344 | 0.4138 | 0.3967 | 0.3825
x2 = 0.6386 | 0.4413 | 0.4183 | 0.3988 | 0.3825 | 0.3687
x2 = 0.7084 | 0.4238 | 0.4023 | 0.3839 | 0.3683 | 0.3549
x2 = 0.7927 | 0.402 | 0.3823 | 0.3652 | 0.3505 | 0.3375
x2 = 0.855 | 0.3855 | 0.3672 | 0.351 | 0.3367 | 0.324
x2 = 0.9073 | 0.3714 | 0.3541 | 0.3387 | 0.3249 | 0.3123
x2 = 0.9497 | 0.3599 | 0.3435 | 0.3286 | 0.3152 | 0.3028

CCCCCCCCCCCCCCCCCCO + CCCO
298.15 K, 101 kPa
Conditions | viscosity [mPa·s]
x1 = 0.0016 | 2.071
x1 = 0.0028 | 2.011
x1 = 0.0106 | 2.164
x1 = 0.0212 | 2.332
